The source of these data is patent publication US12082933B2, “Methods of using brain temporal dynamics” (priority 2016, dated 2024).

Assay [1] in a line: Open-label 8-week escitalopram treatment trial, depressive symptoms by MADRS. Format: in vivo, human. The settings on record: escitalopram 10-20 mg daily, week 8. From the text:
95 participants were included in this study. Data were collected as part of the CAN-BIND 1 project (Lam et al., 2016). Participants were outpatients aged 18-60 years of age, and met DSM-IV-TR (2000) criteria for major depressive episode (MDE) in MDD, confirmed by the Mini international Neuropsychiatric inventory (MINI) (Sheehan et al., 1998). Data were gathered across four study sites: University Health Network, Centre for Addiction and Mental Health in Toronto, Queen's University in Kingston, Ontario, Canada, and University of British Columbia in Vancouver, British Columbia, Canada. Study procedures were approved by research ethics institutional review boards at each site. All participants signed written informed consent prior to participation. At study enrollment, all participants were experiencing a MDE duration≥3 months with a Montgomery Asberg Depression Rating Scale (MAD RS) score≥24. All participants were free of psychotropic medications for at least 5 half-lives before baseline Visit 1. Participants were excluded if they had: 1) any Axis I diagnosis other than MDD, that was considered the primary diagnosis; 2) diagnosis of Bipolar Disorder Type I or II; 3) a significant Axis II diagnosis (borderline, antisocial); 4) high suicidal risk, 5) substance dependence/abuse in the past 6 months; 6) presence of significant neurological disorders, 7) head trauma, or 8) other unstable medical condition. Exclusionary criteria related to the medications included: having failed four or more adequate pharmacological interventions, having started psychological treatment within the past 3 months with the intent of continuing the treatment, previously having failed escitalopram treatment or showing intolerance to escitalopram, and being at risk for hypomanic switch (i.e. with a history of antidepressant induced hypomania). In addition, female participants who were pregnant or breastfeeding were excluded. […] The study period was eight weeks and participants were assessed with MADRS every 2 weeks starting from before administration of study medication (baseline). […]

Assay [2] can be described thus: Resting-state eyes closed EEG multi-scale entropy (MSE) during escitalopram treatment. Format: in vivo, human.
Experimental: Subjects were instructed to sit quietly in a testing room, while 8 minute of resting-state eyes closed EEG were recorded. Subjects were instructed to remain still, reduce eye blinks or movement to a minimum, and refrain from falling asleep.
Data were imported into MATLAB (The Math Works. Inc. Natick, MA, USA) for preprocessing. The open source EEGLAB toolbox version 12.0 (Delorme and Makeig, 2004) were used for data import. The EEG signals were epoched into segments of two seconds duration. Then a standardized custom-made and stream-lined open source software develop by our team, EEGERP toolbox (http:www.tmseeg.com/multisiteprojects), was used to preprocess the data in 6 steps as described elsewhere (Farzan et al., 2017). All data were brought down to sampling rate of 512 Hz for consistency across all sites, and average re-referenced in the final preprocessing step.
MSE was examined identical to a prior publication (Farzan et al., Brain 2016). […] First, for a given time series {xi,x2, . . . xN}, the multiple coarse-grained time series {y1^(τ), y2^(τ), . . . , yN^(τ)} at scale factor τ were calculated by averaging the data points within non-overlapping windows of increasing length τ. Each element of the coarse-grained time series yj^(τ), was calculated according to the equation:
[formula] […] Second, the degree of predictability was measured for each of the multiple coarse-grained time series {y1^(τ), y2^(τ), . . . , yN^(τ)} using SampleEn. SampleEn was calculated according to the equation: SampleEn(r,m,M)=−In(C(m+1)/C(m)) (2) where C(m) is the total number of pairs of in consecutive similar data points, C(m+1) is the total number of pairs of m+1 consecutive similar data points in the multiple coarse-grained time series. SampleEn quantifies the variability of time series by estimating the predictability of amplitude patterns across a time series. […] MSE was calculated for a 30 second continuous epoch.” […]
For assay [3] the following is noted: six months of treatment; specifically in younger adults; cited from earlier work.

SMILES strings stand for the structures.

Take `CN(C)CCC[C@@]1(c2ccc(F)cc2)OCc2cc(C#N)ccc21` [Escitalopram]: the “MADRS Post Week8 (mean +/− std)” value in assay [1] (All Groups (n = 95)) was 15.4 +/− 9.7; in assay [1] (Non-responders (n = 50)), 22.3 +/− 7.18; in assay [1] (Responders (n = 45)), 7.62 +/− 5.24. The “Change in MSE pre (baseline) to post treatment (week 8)” value is “No significant changes” in assay [2] (non-responders) and “reduction of MSE in fine time-scales” in assay [2] (responders, fronto-parietal brain regions, cluster p=0.09). Further, in assay [2] (non-responders, scale factor>18, lateral frontal, fronto-temporal, parieto-occipital regions, clusters p<0.05), the “Change in MSE at week 2 relative to pre treatment (baseline)” value is on record as “reduction of MSE in coarse time-scales”.
On to `CN1CCN2c3ncccc3Cc3ccccc3C2C1` (stereo not shown) [mirtazapine], for which the “Effect on excess complexity (Lempel-Ziv Complexity) in depression” value in assay [3] is listed as “normalized the excess complexity in depression”.
